Source: patent publication US11299501B2 (BRISTOL-MYERS SQUIBB COMPANY, priority 2017, dated 2022)
pIC50: −log10 of the molar value.

Experiments:
Type in all cases: cell-based
human TLR9 = biological target: T1, human TLR9 (Homo sapiens, UniProt Q9NR96); assay: TLR9 inhibition reporter assay (HEK-Blue SEAP); details: cells overexpressing human TLR9, SEAP reporter, stimulated with ODN2006 5 nM, 22 hour incubation
T1 construct: host or cells: HEK-Blue cells
T1 sequence (Q9NR96 26-1032): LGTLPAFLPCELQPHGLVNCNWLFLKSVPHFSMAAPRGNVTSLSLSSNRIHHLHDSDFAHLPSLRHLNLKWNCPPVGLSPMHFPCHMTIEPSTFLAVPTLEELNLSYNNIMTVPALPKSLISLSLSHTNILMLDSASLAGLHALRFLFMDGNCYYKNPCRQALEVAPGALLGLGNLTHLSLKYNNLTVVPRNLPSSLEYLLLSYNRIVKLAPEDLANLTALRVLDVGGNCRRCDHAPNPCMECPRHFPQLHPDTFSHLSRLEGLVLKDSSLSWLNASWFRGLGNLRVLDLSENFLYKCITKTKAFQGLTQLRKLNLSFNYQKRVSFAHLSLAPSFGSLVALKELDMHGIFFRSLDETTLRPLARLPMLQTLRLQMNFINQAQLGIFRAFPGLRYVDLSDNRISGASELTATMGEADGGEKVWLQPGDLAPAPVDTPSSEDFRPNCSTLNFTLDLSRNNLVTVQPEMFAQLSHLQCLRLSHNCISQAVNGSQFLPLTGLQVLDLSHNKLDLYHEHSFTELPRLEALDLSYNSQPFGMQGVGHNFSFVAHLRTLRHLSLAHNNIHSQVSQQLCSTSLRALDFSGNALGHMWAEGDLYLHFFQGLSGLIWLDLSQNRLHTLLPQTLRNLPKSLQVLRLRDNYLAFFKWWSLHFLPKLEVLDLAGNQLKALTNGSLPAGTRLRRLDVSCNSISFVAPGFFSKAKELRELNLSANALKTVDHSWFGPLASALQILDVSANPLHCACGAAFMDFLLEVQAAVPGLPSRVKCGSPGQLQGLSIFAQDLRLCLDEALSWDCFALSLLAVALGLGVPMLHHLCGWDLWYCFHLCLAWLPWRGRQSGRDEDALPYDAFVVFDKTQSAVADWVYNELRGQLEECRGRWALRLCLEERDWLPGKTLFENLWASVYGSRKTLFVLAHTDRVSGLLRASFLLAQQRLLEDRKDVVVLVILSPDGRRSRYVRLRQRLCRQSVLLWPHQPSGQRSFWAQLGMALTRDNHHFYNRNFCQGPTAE
Outline: (§1)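 HEK-Blue cells expressing human TLR7, TLR8 or TLR9 with NF-κB/AP-1-driven SEAP reporter pre-treated 30 min at room temperature with compound (0.05 nM–50 μM), then stimulated with gardiquimod 7.5 μM (TLR7), R848 15.9 μM (TLR8) or ODN2006 5 nM (TLR9). SEAP read after 22 h at 37 °C; % inhibition relative to agonist+DMSO and reference-inhibitor wells.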

human TLR8 = biological target: T2, human TLR8 (Homo sapiens, UniProt Q9NR97); assay: TLR8 inhibition reporter assay (HEK-Blue SEAP); details: cells overexpressing human TLR8, SEAP reporter, stimulated with R848 15.9 μM, 22 hour incubation
T2 construct: host or cells: HEK-Blue cells
T2 sequence (Q9NR97 27-1041): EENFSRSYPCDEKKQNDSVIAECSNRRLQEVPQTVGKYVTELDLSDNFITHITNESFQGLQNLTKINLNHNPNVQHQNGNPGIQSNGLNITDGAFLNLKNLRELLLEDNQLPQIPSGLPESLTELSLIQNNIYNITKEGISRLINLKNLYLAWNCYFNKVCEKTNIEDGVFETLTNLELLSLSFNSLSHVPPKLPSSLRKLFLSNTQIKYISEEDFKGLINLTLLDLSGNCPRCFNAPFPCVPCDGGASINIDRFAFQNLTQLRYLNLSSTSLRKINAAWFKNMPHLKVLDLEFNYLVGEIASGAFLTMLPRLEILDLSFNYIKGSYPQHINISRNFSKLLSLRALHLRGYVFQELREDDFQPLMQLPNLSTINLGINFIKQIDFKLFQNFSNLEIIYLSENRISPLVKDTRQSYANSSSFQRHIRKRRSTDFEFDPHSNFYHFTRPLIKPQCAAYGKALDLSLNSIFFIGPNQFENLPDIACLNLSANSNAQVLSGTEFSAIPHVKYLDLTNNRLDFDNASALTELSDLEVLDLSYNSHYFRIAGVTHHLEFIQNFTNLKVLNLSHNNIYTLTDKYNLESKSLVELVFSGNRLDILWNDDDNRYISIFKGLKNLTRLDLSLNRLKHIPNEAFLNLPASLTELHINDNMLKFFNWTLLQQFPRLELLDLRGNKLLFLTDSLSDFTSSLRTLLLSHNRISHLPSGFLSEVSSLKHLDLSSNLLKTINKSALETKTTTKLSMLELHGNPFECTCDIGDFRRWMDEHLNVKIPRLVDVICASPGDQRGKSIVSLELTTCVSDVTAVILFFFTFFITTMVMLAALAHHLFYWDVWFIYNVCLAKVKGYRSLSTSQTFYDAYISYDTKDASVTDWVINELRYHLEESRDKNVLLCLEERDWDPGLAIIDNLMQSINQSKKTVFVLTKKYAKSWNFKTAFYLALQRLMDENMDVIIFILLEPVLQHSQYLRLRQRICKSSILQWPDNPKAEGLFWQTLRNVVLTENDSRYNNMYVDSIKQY
Outline: as §1

human TLR7 = biological target: T3, human TLR7 (Homo sapiens, UniProt Q9NYK1); assay: TLR7 inhibition reporter assay (HEK-Blue SEAP); details: cells overexpressing human TLR7, SEAP reporter, stimulated with gardiquimod 7.5 μM, 22 hour incubation
T3 construct: host or cells: HEK-Blue cells
T3 sequence (Q9NYK1 27-1049): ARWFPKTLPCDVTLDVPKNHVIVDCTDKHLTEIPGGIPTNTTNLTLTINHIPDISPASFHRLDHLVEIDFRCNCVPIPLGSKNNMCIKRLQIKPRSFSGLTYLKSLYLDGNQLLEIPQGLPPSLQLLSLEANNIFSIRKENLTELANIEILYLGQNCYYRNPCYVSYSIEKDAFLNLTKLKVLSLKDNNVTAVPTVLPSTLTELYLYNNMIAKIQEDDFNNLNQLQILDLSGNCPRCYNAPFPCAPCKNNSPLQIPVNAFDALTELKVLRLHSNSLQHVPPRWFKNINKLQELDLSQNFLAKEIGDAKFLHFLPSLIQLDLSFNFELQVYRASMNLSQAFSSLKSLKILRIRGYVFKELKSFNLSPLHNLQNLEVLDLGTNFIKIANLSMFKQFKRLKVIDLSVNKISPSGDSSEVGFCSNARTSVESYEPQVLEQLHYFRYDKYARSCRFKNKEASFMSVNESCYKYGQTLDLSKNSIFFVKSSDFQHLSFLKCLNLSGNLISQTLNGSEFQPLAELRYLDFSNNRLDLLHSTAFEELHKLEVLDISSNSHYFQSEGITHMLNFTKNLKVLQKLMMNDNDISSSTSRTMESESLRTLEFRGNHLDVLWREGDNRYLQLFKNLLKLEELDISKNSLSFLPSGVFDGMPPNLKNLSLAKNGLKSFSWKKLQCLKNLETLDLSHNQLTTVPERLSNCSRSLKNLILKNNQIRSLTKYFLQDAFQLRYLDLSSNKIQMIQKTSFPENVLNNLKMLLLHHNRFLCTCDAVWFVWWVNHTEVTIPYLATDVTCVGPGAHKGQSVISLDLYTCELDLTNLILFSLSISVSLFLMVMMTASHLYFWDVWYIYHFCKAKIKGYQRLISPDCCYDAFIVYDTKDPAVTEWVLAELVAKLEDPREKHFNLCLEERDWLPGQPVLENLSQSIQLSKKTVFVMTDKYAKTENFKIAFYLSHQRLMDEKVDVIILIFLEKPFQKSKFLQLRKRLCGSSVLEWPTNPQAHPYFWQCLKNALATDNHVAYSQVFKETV
Outline: as §1

Compound CCc1c(-c2ccc(OC)c(OC)c2)[nH]c2cnc(C3CCN(Cc4nc(C)c[nH]4)CC3)nc12 [Example 52, 6-(3,4-dimethoxyphenyl)-7-ethyl-2-(1-((4-methy 1H-imidazol-2-yl)methyl)piperidin-4-yl)-5H-pyrrolo[3,2-d]pyrimidine] has a pIC50 (human TLR9) of 4.30 to 6.00, a pIC50 (human TLR8) of over 7.00 and a pIC50 (human TLR7) of 6.00 to 7.00.
CCc1c(-c2ccc(OC)c(OC)c2)[nH]c2cnc(-c3nnc(N)o3)nc12 [Example 53, 5-(6-(3,4-dimethoxyphenyl)-7-ethyl-5H-pyrrolo[3,2-d]pyrimidin-2-yl)-1,3,4-oxadiazol-2-amine] showed a pIC50 (human TLR9) of under 4.30, a pIC50 (human TLR8) of 4.30 to 6.00 and a pIC50 (human TLR7) of under 4.30.
CCc1c(-c2ccc(OC)c(OC)c2)[nH]c2cnc(C(=O)N3CC4CNCC4C3)nc12 (stereo not drawn) [Example 55, (6-(3,4-dimethoxyphenyl)-7-ethyl-5H-pyrrolo[3,2-d]pyrimidin-2-yl)(hexahydropyrrolo[3,4-c]pyrrol-2(1H)-yl)methanone] showed a pIC50 (human TLR9) of 4.30 to 6.00, a pIC50 (human TLR8) of 4.30 to 6.00 and a pIC50 (human TLR7) of 4.30 to 6.00.
For CCc1c(-c2ccc(OC)c(OC)c2)[nH]c2cnc(C(=O)NC3CCN(C(C)C)CC3)nc12 [Example 56, 6-(3,4-diunethoxyphenyl)-7-ethyl-N-(1-isopropylpiperidin-4-yl)-5H-pyrrolo[3,2-d]pyrimidine-2-carboxamide], the pIC50 (human TLR9) was under 4.30, the pIC50 (human TLR8) was 4.30 to 6.00 and the pIC50 (human TLR7) was 4.30 to 6.00.
Compound COc1cc(-c2[nH]c3cnc(C4CCN(CC#N)CC4)nc3c2C(C)C)cn2ncnc12 [Example 59] has a pIC50 (human TLR9) of 6.00 to 7.00, a pIC50 (human TLR8) of over 7.00 and a pIC50 (human TLR7) of over 7.00.
